Assay results from patent publication US10745719B2, “Enzymes and methods for dealkylation of substrates” (Alliance for Sustainable Energy, LLC, priority 2015, dated 2020).

Assays:
P. putida KT2440/pCJ021 = assay: Growth on and metabolism of aromatic substrate by P. putida KT2440/pCJ021 (cytochrome P450 O-dealkylase and reductase) in M9 minimal medium; type: cell-based, Pseudomonas putida
From the text: (§1) The genes encoding the cytochrome P450 protein and the co-transcribed reductase were amplified from Amycolatopsis sp. ATCC 39116 DNA using primers oCJ169 and oCJ170 (see Table 2) and the product assembled using Gibson Assembly Master Mix (New England BioLabs) into the broad host-range vector pBTL-2, which was amplified using primers oCJ160 and oCJ161, resulting in pCJ021. pBTL-2 (a gift from Ryan Gill; Addgene plasmid #22806) is a broad host-range vector that drives expression of inserted genes using the lac promoter, which is constitutively expressed in Pseudomonas putida KT2440. The cytochrome P450 gene alone was also amplified using oCJ169 and oCJ206 and assembled it into the same vector (resulting in pCJ024). pCJ021 was then transformed into P. putida KT2440 to generate P. putida KT2440/pCJ021.
HPLC analysis was performed by injecting 6 μL of 0.2 μm filtered culture supernatant onto an Agilent 1100 series system equipped with a Phenomenex Rezex RFQ-Fast Acid H+ (8%) column and a cation H+ guard cartridge (Bio-Rad Laboratories) at 85° C. run using a mobile phase of 0.01 N sulfuric acid at a flow rate of 1.0 mL/min and a diode array detector to measure absorbance at 210 nm. Analytes were identified by comparing retention times and spectral profiles with pure standards. HPLC chromatograms show milli-absorbance units (mAU) on the Y axis and retention time (minutes) on the X axis.
(§2) P. putida KT2440 can readily metabolize catechol for growth, so a functional enzyme with O-dealkylase activity would convert guaiacol or guaethol to catechol and enable this organism to metabolize guaiacol or guaethol for growth, which it is not natively capable of.
HPLC analyses show the disappearance of guaiacol in a culture of P. putida KT2440/pCJ021 grown on M9 minimal medium containing guaiacol and the lack of guaiacol catabolism by native P. putida KT2440 (FIG. 6).

[1] = tested on: P. putida KT2440 transformed with pCJ024; assay: Metabolism of guaiacol by P. putida KT2440 transformed with pCJ024 (cytochrome P450 gene alone); type: cell-based, Pseudomonas putida; conditions: M9 minimal medium, 5 mM guaiacol
From the text: as §1, §2

[2] = 5 mM guaiacol as sole source of carbon and energy

CCOc1ccccc1O [guaethol, 2-ethoxyphenol]
metabolism of substrate (P. putida KT2440/pCJ021; 5 mM guaethol as sole source of carbon and energy, 72 hours): able to metabolize the guaethol
OD600 reached (P. putida KT2440/pCJ021; 5 mM guaethol, growth on the catechol produced): 7

COc1ccccc1O [guaiacol, 2-methoxyphenol]
metabolism of substrate [1]: neither of these strains was able to metabolize guaiacol
OD600 reached (P. putida KT2440/pCJ021; [2]): over 0.5
metabolism of substrate (P. putida KT2440/pCJ021; [2]): metabolizing the guaiacol completely
